# Experimental data published in patent publication US6884798B2, “Fungicidal agent combinations” (Bayer CropScience AG, priority 2000, dated 2005).
# Test system: Sphaerotheca pannosa
# Assay: Sphaerotheca test roses/curative
# Format: in vivo, Sphaerotheca pannosa on roses
# Conditions: infected roses sprayed three times at 7-day intervals; application rate 100 g/ha
# Protocol: To produce a suitable preparation of active compound, a commercial formulation of active compound or active compound combination is mixed with water until the desired concentration is reached.
# To test for curative activity, roses infected with Sphaerotheca pannosa are sprayed three times, at intervals of in each case 7 days, with the preparation of active compound at the stated application rate. The plants are placed in a greenhouse at temperatures between 15° C. and 23° C. and a relative atmospheric humidity of about 70%.
# Evaluation is carried out 10 or 20 days after the third treatment. 0% means an efficacy which corresponds to that of the control, whereas an efficacy of 100% means that no infection is observed.
smiles,measurement,value
"CC(C)(C)C(O)(CCc1ccc(Cl)cc1)Cn1cncn1 (centres unmarked) [tebuconazoles, tebuconazole]",Efficacy in % 10 days after the third treatment,28.6%
same,Efficacy in % 20 days after the third treatment,26.6%
